In patent US8143243B2, “Compounds for the treatment of hepatitis C” (Bristol-Myers Squibb Company, priority 2007, dated 2012):
Where two headings read alike, the source gives them in different places.

Assays:
[1] = target: T1, HCV NS5B (Hepatitis C virus genotype 1b, UniProt Q9WMX2); test: HCV NS5B RdRp enzyme assay (standard / modified); format: biochemical
T1 construct: The protein was expressed with an 18 amino acid C-terminal truncation to enhance the solubility; made in house; host or cells: E. coli BL21 (DE3)
T1 sequence (Q9WMX2 2420-2992): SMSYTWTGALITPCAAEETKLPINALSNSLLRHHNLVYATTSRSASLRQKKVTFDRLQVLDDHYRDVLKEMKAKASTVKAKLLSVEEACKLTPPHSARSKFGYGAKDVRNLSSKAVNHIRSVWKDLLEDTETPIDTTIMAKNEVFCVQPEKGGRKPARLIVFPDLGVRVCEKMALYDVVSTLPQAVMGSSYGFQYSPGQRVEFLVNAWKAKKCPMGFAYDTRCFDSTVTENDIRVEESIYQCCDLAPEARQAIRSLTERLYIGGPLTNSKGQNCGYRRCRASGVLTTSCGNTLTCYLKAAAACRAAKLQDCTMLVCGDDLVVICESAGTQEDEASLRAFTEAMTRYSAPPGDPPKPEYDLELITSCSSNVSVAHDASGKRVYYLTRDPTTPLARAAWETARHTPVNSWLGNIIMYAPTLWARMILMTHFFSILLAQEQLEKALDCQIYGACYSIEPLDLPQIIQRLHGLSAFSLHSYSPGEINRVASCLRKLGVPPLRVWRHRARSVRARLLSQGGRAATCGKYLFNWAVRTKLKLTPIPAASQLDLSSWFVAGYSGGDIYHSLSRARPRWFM
Procedure: HCV NS5B RdRp cloning, expression, and purification. The cDNA encoding the NS5B protein of HCV, genotype 1b, was cloned into the pET21a expression vector. The protein was expressed with an 18 amino acid C-terminal truncation to enhance the solubility. The E. coli competent cell line BL21 (DE3) was used for expression of the protein. Cultures were grown at 37° C. for ˜4 hours until the cultures reached an optical density of 2.0 at 600 nm. The cultures were cooled to 20° C. and induced with 1 mM IPTG. Fresh ampicillin was added to a final concentration of 50 μg/ml and the cells were grown overnight at 20° C.
Cell pellets (3 L) were lysed for purification to yield 15-24 mgs of purified NS5B. The lysis buffer consisted of 20 mM Tris-HCl, pH 7.4, 500 mM NaCl, 0.5% triton X-100, 1 mM DTT, 1 mM EDTA, 20% glycerol, 0.5 mg/ml lysozyme, 10 mM MgCl2, 15 ug/ml deoxyribonuclease I, and Complete TM protease inhibitor tablets (Roche). After addition of the lysis buffer, frozen cell pellets were resuspended using a tissue homogenizer. To reduce the viscosity of the sample, aliquots of the lysate were sonicated on ice using a microtip attached to a Branson sonicator. The sonicated lysate was centrifuged at 100,000×g for 1 hr at 4° C. and filtered through a 0.2 μm filter unit (Corning).
The protein was purified using three sequential chromatography steps: Heparin sepharose CL-6B, polyU sepharose 4B, and Hitrap SP sepharose (Pharmacia). The chromatography buffers were identical to the lysis buffer but contained no lysozyme, deoxyribonuclease I, MgCl2 or protease inhibitor and the NaCl concentration of the buffer was adjusted according to the requirements for charging the protein onto the column. Each column was eluted with a NaCl gradient which varied in length from 5-50 column volumes depending on the column type. After the final chromatography step, the resulting purity of the enzyme is >90% based on SDS-PAGE analysis. The enzyme was aliquoted and stored at −80° C.
Standard HCV NS5B RdRp enzyme assay. HCV RdRp genotype 1b assays were run in a final volume of 60 μl in 96 well plates (Costar 3912). The assay buffer is composed of 20 mM Hepes, pH 7.5, 2.5 mM KCl, 2.5 mM MgCl2, 1 mM DTT, 1.6 U RNAse inhibitor (Promega N2515), 0.1 mg/ml BSA (Promega R3961), and 2% glycerol. All compounds were serially diluted (3-fold) in DMSO and diluted further in water such that the final concentration of DMSO in the assay was 2%. HCV RdRp genotype 1b enzyme was used at a final concentration of 28 nM. A polyA template was used at 6 nM, and a biotinylated oligo-dT12 primer was used at 180 nM final concentration. Template was obtained commercially (Amersham 27-4110). Biotinylated primer was prepared by Sigma Genosys. 3H-UTP was used at 0.6 μCi (0.29 μM total UTP). Reactions were initiated by the addition of enzyme, incubated at 30° C. for 60 min, and stopped by adding 25 μl of 50 mM EDTA containing SPA beads (4 μg/μl, Amersham RPNQ 0007). Plates were read on a Packard Top Count NXT after >1 hr incubation at room temperature.
Modified HCV NS5B RdRp enzyme assay. A modified enzyme assay was performed essentially as described for the standard enzyme assay except for the following: The biotinylated oligo dT12 primer was precaptured on streptavidin-coated SPA beads by mixing primer and beads in assay buffer and incubating at room temperature for one hour. Unbound primer was removed after centrifugation. The primer-bound beads were resuspended in 20 mM Hepes buffer, pH 7.5 and used in the assay at final concentrations of 20 nM primer and 0.67 μg/μl beads. Order of addition in the assay: enzyme (14 nM) was added to diluted compound followed by the addition of a mixture of template (0.2 nM), 3H-UTP (0.6 μCi, 0.29 μM), and primer-bound beads, to initiate the reaction; concentrations given are final. Reactions were allowed to proceed for 4 hours at 30° C.
IC50 values for compounds were determined using seven different [I]. […]

[2] = system: HCV replicon cells; test: HCV replicon FRET / luciferase assay; format: cell-based; settings: Hepatitis C virus
Description: FRET Assay Preparation. To perform the HCV FRET screening assay, 96-well cell culture plates were used. The FRET peptide (Anaspec, Inc.) (Taliani et al., Anal. Biochem. 1996, 240, 60-67) contains a fluorescence donor, EDANS, near one end of the peptide and an acceptor, DABCYL, near the other end. The fluorescence of the peptide is quenched by […] resonance energy transfer (RET) between the donor and the acceptor, but as the NS3 protease cleaves the peptide the products are released from RET quenching and the fluorescence of the donor becomes apparent. The assay reagent was made as follows: 5× cell Luciferase cell culture lysis reagent from Promega (#E153A) diluted to 1× with dH2O, NaCl added to 150 mM final, the FRET peptide diluted to 20 μM final from a 2 mM stock.
To prepare plates, HCV replicon cells, with or without a Renilla luciferase reporter gene, were trypsinized and placed into each well of a 96-well plate with titrated test compounds added in columns 3 through 12; columns 1 and 2 contained a control compound (HCV protease inhibitor), and the bottom row contained cells without compound. The plates were then placed in a CO2 incubator at 37° C.
Assays. Subsequent to addition of the test compounds described above (FRET Assay Preparation), at various times the plate was removed and Alamar blue solution (Trek Diagnostics, #00-100) was added per well as a measure of cellular toxicity. After reading in a Cytoflour 4000 instrument (PE Biosystems), plates were rinsed with PBS and then used for FRET assay by the addition of 30 ul of the FRET peptide assay reagent described above (FRET Assay Preparation) per well. The plate was then placed into the Cytoflour 4000 instrument which had been set to 340 excite/490 emission, automatic mode for 20 cycles and the plate read in a kinetic mode. Typically, the signal to noise using an endpoint analysis after the reads was at least three-fold. Alternatively, after Alamar blue reading, plates were rinsed with PBS, 50 ul of DMEM (high glucose) without phenol red was added and plates were then used for luciferase assay using the Promega Dual-Glo Luciferase Assay System.
Compound analysis was determined by quantification of the relative HCV replicon inhibition and the relative cytotoxicity values. To calculate cytoxicity values, the average Alamar Blue fluorescence signals from the control wells were set as 100% non-toxic. The individual signals in each of the compound test wells were then divided by the average control signal and multiplied by 100% to determine […]. To calculate the HCV replicon inhibition values, an average background value was obtained from the two wells containing the highest amount of HCV protease inhibitor at the end of the assay period. These numbers were similar to those obtained from naïve Huh-7 cells.
The background numbers were then subtracted from the average signal obtained from the control wells and this number was used as 100% activity. The individual signals in each of the compound test wells were then divided by the averaged control values after background subtraction and multiplied by 100% to determine percent activity. EC50 values for a protease inhibitor titration were calculated as the concentration which caused a 50% reduction in FRET or luciferase activity. The two numbers generated for the compound plate, percent cytoxicity and percent activity were used to determine compounds of interest for further analysis.

[3] = HCV RdRp genotype 1b enzyme, read-out: IC50
[4] = HCV replicon cells, FRET or luciferase readout, read-out: EC50

Compound: COC(=O)c1c(C)nn(C)c1C1=Cc2cc(OC)ccc2-c2c(C3CCCCC3)c3ccc(C(=O)O)cc3n2C1
- IC50 [1, 3]: 1 to 500 nM
- EC50 [2, 4]: 1 to 500 nM

Compound: COCCN(C(=O)c1cnn(C)c1C1=Cc2cc(OC)ccc2-c2c(C3CCCCC3)c3ccc(C(=O)NS(=O)(=O)C(C)C)cc3n2C1)C(C)C
- IC50 [1, 3]: 1 to 500 nM
- EC50 [2, 4]: 1 to 500 nM

Compound: COc1ccc2c(c1)C=C(c1c(C(=O)O)c(C)nn1C)Cn1c-2c(C2CCCCC2)c2ccc(C(=O)NS(=O)(=O)CC(C)C)cc21
- IC50 [1, 3]: 1 to 500 nM
- EC50 [2, 4]: > 40 nM

Compound: COc1ccc2c(c1)C=C(c1c(C(=O)N3C4COCC3COC4)cnn1C)Cn1c-2c(C2CCCCC2)c2ccc(C(=O)NS(=O)(=O)C3CCCC3)cc21
- IC50 [1]: 1 to 500 nM
- EC50 [2]: 1 to 500 nM

Compound: CCn1ncc(C(=O)N2C3CCCC2COC3)c1C1=Cc2cc(OC)ccc2-c2c(C3CCCCC3)c3ccc(C(=O)NS(=O)(=O)C(C)C)cc3n2C1
- IC50 [1]: 1 to 500 nM
- EC50 [2]: 1 to 500 nM

Compound: COc1ccc2c(c1)C=C(c1c(C(=O)N3C4CCC3CN(C)C4)cnn1C)Cn1c-2c(C2CCCCC2)c2ccc(C(=O)O)cc21
- IC50 [1]: > 500 nM
- EC50 [2]: 1 to 500 nM

Compound: COc1ccc2c(c1)C=C(c1c(C(=O)N3C4CCC3CC4)cnn1C)Cn1c-2c(C2CCCCC2)c2ccc(C(=O)NS(=O)(=O)C(C)C)cc21
- EC50 [2]: 1 to 500 nM

Compound: COc1ccc2c(c1)C=C(c1c(C(=O)N3C4COCC3COC4)cnn1C)Cn1c-2c(C2CCCCC2)c2ccc(C(=O)NS(=O)(=O)N3CCOCC3)cc21
- IC50 [1]: 1 to 500 nM
- EC50 [2]: 1 to 500 nM

Compound: COc1ccc2c(c1)C=C(c1c(C(=O)N3C[C@@H](C)N(C)[C@@H](C)C3)c(C)nn1C)Cn1c-2c(C2CCCCC2)c2ccc(C(=O)NS(=O)(=O)C(C)C)cc21
- IC50 [1, 3]: 1 to 500 nM
- EC50 [2, 4]: 1 to 500 nM

Compound: CCn1nc(C)c(C(=O)N2C3CCCC2COC3)c1C1=Cc2cc(OC)ccc2-c2c(C3CCCCC3)c3ccc(C(=O)NS(=O)(=O)C(C)C)cc3n2C1
- EC50 [2]: 1 to 500 nM

Compound: COc1ccc2c(c1)C=C(c1c(C(=O)N3C4COCC3COC4)cnn1CC(F)(F)F)Cn1c-2c(C2CCCCC2)c2ccc(C(=O)NS(=O)(=O)C(C)C)cc21
- EC50 [2]: 1 to 500 nM

Compound: CCn1nc(C)c(C(=O)N2C3CCC2CN(C)C3)c1C1=Cc2cc(OC)ccc2-c2c(C3CCCCC3)c3ccc(C(=O)NS(=O)(=O)C(C)C)cc3n2C1
- EC50 [2]: 1 to 500 nM

Compound: CCn1ncc(C(=O)N2C3CCC2CN(C)C3)c1C1=Cc2cc(OC)ccc2-c2c(C3CCCCC3)c3ccc(C(=O)NS(=O)(=O)C(C)C)cc3n2C1
- EC50 [2]: 1 to 500 nM

Compound: COc1ccc2c(c1)C=C(c1c(C(=O)N3C4CCC3CN(C)C4)nnn1C(C)C)Cn1c-2c(C2CCCCC2)c2ccc(C(=O)NS(=O)(=O)N(C)C)cc21
- EC50 [2]: 1 to 500 nM

Compound: COc1ccc2c(c1)C=C(c1c(C(=O)N3C4CCC3CN(C)C4)c(C)nn1C(C)C)Cn1c-2c(C2CCCCC2)c2ccc(C(=O)NS(=O)(=O)C(C)C)cc21
- EC50 [2]: 1 to 500 nM

Compound: CCn1ncc(C(=O)N2CC3CCC(C2)N3C)c1C1=Cc2cc(OC)ccc2-c2c(C3CCCCC3)c3ccc(C(=O)NS(=O)(=O)C(C)C)cc3n2C1
- EC50 [2]: 1 to 500 nM

Compound: COc1ccc2c(c1)C=C(c1c(C(=O)N3C4CCCC3COC4)cnn1C(C)C)Cn1c-2c(C2CCCCC2)c2ccc(C(=O)NS(=O)(=O)C(C)C)cc21
- EC50 [2]: 1 to 500 nM

Compound: COc1ccc2c(c1)C=C(c1c(C(=O)O)cnn1C)Cn1c-2c(C2CCCCC2)c2ccc(C(=O)NS(=O)(=O)C(C)C)cc21
- IC50 [1, 3]: 1 to 500 nM

Compound: CCC(C)S(=O)(=O)NC(=O)c1ccc2c(C3CCCCC3)c3n(c2c1)CC(c1c(C(=O)N2CCN4CCCC4C2)cnn1C)=Cc1cc(OC)ccc1-3 (centres unmarked)
- IC50 [1, 3]: 1 to 500 nM

Compound: COc1ccc2c(c1)C=C(c1c(C(=O)N3[C@H]4CC[C@@H]3CC4)cnn1C)Cn1c-2c(C2CCCCC2)c2ccc(C(=O)NS(=O)(=O)C(C)C)cc21
- IC50 [1]: 1 to 500 nM

Compound: CCc1nnc(CN(C(=O)c2cnn(C)c2C2=Cc3cc(OC)ccc3-c3c(C4CCCCC4)c4ccc(C(=O)NS(=O)(=O)C(C)C)cc4n3C2)C(C)C)o1
- IC50 [1, 3]: 1 to 500 nM

Compound: COc1ccc2c(c1)C=C(c1c(C(=O)N3CC4CCC(C3)O4)c(C)nn1C(C)C)Cn1c-2c(C2CCCCC2)c2ccc(C(=O)NS(=O)(=O)C(C)C)cc21
- IC50 [1, 3]: 1 to 500 nM

Compound: COc1ccc2c(c1)C=C(c1c(C(=O)O)cnn1C)Cn1c-2c(C2CCCCC2)c2ccc(C(=O)NS(=O)(=O)C3CCC3)cc21
- IC50 [1, 3]: 1 to 500 nM

Compound: COc1ccc2c(c1)C=C(c1c(C(=O)N3C[C@@H](C)O[C@@H](C)C3)cnn1C)Cn1c-2c(C2CCCCC2)c2ccc(C(=O)NS(=O)(=O)C3CCC3)cc21
- IC50 [1, 3]: 1 to 500 nM

Compound: CCN(C(=O)c1cnn(C)c1C1=Cc2cc(OC)ccc2-c2c(C3CCCCC3)c3ccc(C(=O)NS(=O)(=O)C4CCCC4)cc3n2C1)C(C)C
- IC50 [1, 3]: 1 to 500 nM

Compound: COc1ccc2c(c1)C=C(c1c(C(=O)N3C4CCC3CN(C)C4)ncn1C(C)C)Cn1c-2c(C2CCCCC2)c2ccc(C(=O)NS(=O)(=O)C(C)C)cc21
- EC50 [2]: 1 to 500 nM

Compound: CCOC(=O)c1cnn(C)c1C1=Cc2cc(OC)ccc2-c2c(C3CCCCC3)c3ccc(C(=O)NS(=O)(=O)C4CCC4)cc3n2C1
- IC50 [1, 3]: 1 to 500 nM
